From US20240009219A1, “COMPOSITIONS AND METHODS USING A COMBINATION OF OLEUROPEIN AND NICOTINAMIDE RIBOSIDE FOR CELLULAR ENERGY” (SOCIETE DES PRODUITS NESTLE S.A., priority 2020, published 2024)

How the values were obtained:
[1] = test system: myotubes differentiated from C2C12 cells; test: Mitochondrial calcium measurement with mitochondrially targeted aequorin, caffeine stimulation; format: cell-based; details: NAD+-containing myotubes; Oea 10 μM, NR 0.5 mM; n=6
Protocol: C2C12 cells were purchased from ATCC. C2C12 cells were seeded in 96-well plates at a density of 15 000 cells per well in DMEM high glucose (Gibco)+10% fetal calf serum. Myotubes were differentiated from C2C12 cells by growing the cells in DMEM containing 2% horse serum, for 6 days. Mitochondrial calcium measurements were carried out using myotubes infected with the adenovirus (from Sirion biotech) expressing the mitochondrially targeted calcium sensor mitochondrial mutated aequorin (Montero et al., 2004). For aequorin reconstitution, 48 hours after infection, cells or myotubes were incubated for 2 h at room temperature (22±° C.) in standard medium (145 mM NaCl, 5 mM KCl, 1 mM MgCl2, 1 mM CaCl2, 10 mM glucose and 10 mM Hepes, pH 7.4) with 1 μM wild-type coelenterazine. Myotubes were stimulated with 5 mM of caffeine and the total calcium transition during stimulation was calculated as the area under the curve. […] Luminescence was measured at the Cytation 3 cell imaging reader (Biotek). Calibration of the luminescence data into Calcium concentration was carried out using an algorithm as described previously (Alvarez & Montero, 2002). Custom module analysis based on Excel (Microsoft) and GraphPad Prism 7.02 (GraphPad) software was used for quantification.

C. elegans = C. elegans lifespan test; format: in vivo, Caenorhabditis elegans; details: treated from day 1 of adulthood; NR 100 μM, Oae 200 μM, wild type N2 worms
Protocol: C. elegans lifespan tests were performed using about 100 animals per condition and scored manually every other day. The experimental measurements of the effect of nicotinamide riboside, oleuropein aglycone, and the combination NR+Oae treatment were started at day 1 of wild type N2 worm adulthood, in a regimen of chronic exposure till experiments termination.

[2] = test system: myotubes differentiated from C2C12 cells; test: NAD+ measurement (NAD/NADH Quantification Kit); format: cell-based; details: NAD+-depleted myotubes; NR 0.5 mM, Oea 10 μM; n=6
Protocol: C2C12 cells were purchased from ATCC. C2C12 cells were seeded in 96-well plates at a density of 15 000 cells per well in DMEM high glucose (Gibco)+10% fetal calf serum. Myotubes were differentiated from C2C12 cells by growing the cells in DMEM containing 2% horse serum, for 6 days.
To obtain a condition of restrictions of NAD bioavailability, C2C12-derived myotubes were treated with 1 μM of FK866, an NAMPT inhibitor, for 3 days before experiment. Luminescence was measured at the Cytation 3 cell imaging reader (Biotek). Calibration of the luminescence data into Calcium concentration was carried out using an algorithm as described previously (Alvarez & Montero, 2002). Custom module analysis based on Excel (Microsoft) and GraphPad Prism 7.02 (GraphPad) software was used for quantification.
NAD^+ measurements were carried out using myotubes treated as previous described and quantifying with NAD/NADH Quantification Kit (Sigma-Aldrich).

Compound | integrated mitochondrial calcium rise, evoked by 5 mM caffeine [1] | mean lifespan extension (C. elegans) | NAD production [2]
NC(=O)c1ccc[n+]([C@@H]2O[C@H](CO)[C@@H](O)[C@H]2O)c1 [Nicotinamide riboside, nicotinamide riboside] | does not boost mitochondrial Ca^2+ rise | 5% | –
C/C=C1/C(O)OC=C(C(=O)OC)[C@H]1CC(=O)OCCc1ccc(O)c(O)c1 (mixture of isomers) [Oleuropein aglycone, oleuropein aglycone] | activates mitochondria via mitochondrial Ca^2+ rise | 10% | does not boosts NAD production
